The results in this text go back to article PMC10837402, “Unnatural amino acid substitutions to improve in vivo stability and tumor uptake of ^68Ga-labeled GRPR-targeted TacBOMB2 derivatives for cancer imaging with positron emission tomography” (EJNMMI Radiopharmacy and Chemistry, 2024).

Values joined by “and” are separate entries in the source; they are usually repeats but may differ in a detail not shown here. Equal entries are not always repeated. Starred links: 1 amine or outer side, 2 acyl side, 3 side chain; linkers in the order of their positions; H or OH if unused. Non-standard residues stand in square brackets, D forms with d. Residues, ends and D or L forms follow the SMILES beside them. *: point of attachment. DOTA = O=C(O)CN1CCN(CC(=O)O)CCN(CC(=O)*)CCN(CC(=O)O)CC1; NMeH = CN[C@@H](Cc1c[nH]cn1)C(=O)O; X1 = O=C(CN1CCC(N[*:1])CC1)[*:2]; Tle = CC(C)(C)[C@H](N)C(=O)O; hSer = N[C@@H](CCO)C(=O)O; Thz = O=C(O)[C@@H]1CSCN1; Abu = CC[C@H](N)C(=O)O; Aib = CC(C)(N)C(=O)O

For one assay, the target named is T1, GRPR (Homo sapiens, UniProt P30550).
T1 construct: generated using GRPR-expressing PC-3 cells; endogenous in cells; host or cells: PC-3 cells
T1 sequence (P30550 whole entry): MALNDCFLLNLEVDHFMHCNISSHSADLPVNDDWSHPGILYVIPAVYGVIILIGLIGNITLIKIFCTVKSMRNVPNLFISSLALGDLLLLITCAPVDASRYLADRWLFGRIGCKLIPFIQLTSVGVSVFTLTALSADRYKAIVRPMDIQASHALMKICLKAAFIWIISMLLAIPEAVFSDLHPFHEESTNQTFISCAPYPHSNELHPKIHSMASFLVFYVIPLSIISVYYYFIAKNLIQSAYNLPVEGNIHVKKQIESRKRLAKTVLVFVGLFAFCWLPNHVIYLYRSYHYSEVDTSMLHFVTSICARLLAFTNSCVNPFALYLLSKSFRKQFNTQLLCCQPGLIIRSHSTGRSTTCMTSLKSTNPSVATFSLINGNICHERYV
As to the kind of experiment: In vitro competition binding assay using PC-3 cells and [^125I-Tyr^4]Bombesin as the radioligand. The following applies: PC-3 cells, mean ± SD, n = 3, read-out: GRPR binding affinity (Ki). As to the method: [2022], [2023]; Bratanovic et al. [2022]). The assays were conducted in triplicate with varied concentrations (10 μM to 1 pM) of tested ligands. […] The growth medium was replaced with 400 μL of reaction medium (RPMI 1640 containing 2 mg/mL BSA, and 20 mM HEPES), then the plates were incubated at 37 °C for 60 min. […] Data were analyzed using nonlinear regression with GraphPad (San Diego, CA, USA) Prism 8 software.
For `CC(C)C[C@H](NC(=O)[C@H](Cc1c[nH]cn1)NC(=O)CNC(=O)[C@@H](NC(=O)C(C)(C)NC(=O)[C@H](Cc1c[nH]c2ccccc12)NC(=O)[C@H](CCC(N)=O)NC(=O)[C@H](N)Cc1ccccc1)C(C)C)C(=O)N1CSC[C@H]1C(N)=O` [LW01075, D-Phe-Gln-Trp-Aib-Val-Gly-His-Leu-Thz-NH2] (H-[dF]QW[Aib]VGHL[Thz]-NH2), the Ki (in general, the equilibrium dissociation constant of an inhibitor or competing ligand from its target) is > 150 nM and 2410 nM.

Turning to `CC[C@H](NC(=O)[C@H](Cc1c[nH]c2ccccc12)NC(=O)[C@H](CCC(N)=O)NC(=O)[C@H](N)Cc1ccccc1)C(=O)N[C@H](C(=O)NCC(=O)N[C@@H](Cc1c[nH]cn1)C(=O)N[C@@H](CC(C)C)C(=O)N1CSC[C@H]1C(N)=O)C(C)C` [LW01078, D-Phe-Gln-Trp-2-Abu-Val-Gly-His-Leu-Thz-NH2] (H-[dF]QW[Abu]VGHL[Thz]-NH2), the Ki is 27.2 ± 8.62 nM.

As for `CC[C@H](NC(=O)[C@H](C)NC(=O)[C@H](Cc1c[nH]c2ccccc12)NC(=O)[C@H](CCC(N)=O)NC(=O)[C@H](N)Cc1ccccc1)C(=O)NCC(=O)N[C@@H](Cc1c[nH]cn1)C(=O)N[C@@H](CC(C)C)C(=O)N1CSC[C@H]1C(N)=O` [LW01083, D-Phe-Gln-Trp-Ala-2-Abu-Gly-His-Leu-Thz-NH2], the Ki is > 150 nM and 406 nM.

Consider `CC(C)C[C@H](NC(=O)[C@H](Cc1c[nH]cn1)NC(=O)CNC(=O)[C@@H](NC(=O)[C@H](C)NC(=O)[C@H](Cc1c[nH]c2cc(Cl)ccc12)NC(=O)[C@H](CCC(N)=O)NC(=O)[C@H](N)Cc1ccccc1)C(C)C)C(=O)N1CSC[C@H]1C(N)=O` [LW01137, D-Phe-Gln-6-Cl-Trp-Ala-Val-Gly-His-Leu-Thz-NH2], for which the Ki was > 150 nM and 829 nM.

Regarding `Cc1ccc2c(C[C@H](NC(=O)[C@H](CCC(N)=O)NC(=O)[C@H](N)Cc3ccccc3)C(=O)N[C@@H](C)C(=O)N[C@H](C(=O)NCC(=O)N[C@@H](Cc3c[nH]cn3)C(=O)N[C@@H](CC(C)C)C(=O)N3CSC[C@H]3C(N)=O)C(C)C)c[nH]c2c1` [LW01171, D-Phe-Gln-6-Me-Trp-Ala-Val-Gly-His-Leu-Thz-NH2], the inhibition constant (Ki) is > 150 nM and 1450 nM.

In the case of `CC(C)C[C@H](NC(=O)[C@H](Cc1c[nH]cn1)NC(=O)CNC(=O)[C@@H](NC(=O)[C@H](C)NC(=O)[C@H](Cc1c[nH]c2ccc(O)cc12)NC(=O)[C@H](CCC(N)=O)NC(=O)[C@H](N)Cc1ccccc1)C(C)C)C(=O)N1CSC[C@H]1C(N)=O` [LW01173, D-Phe-Gln-5-OH-Trp-Ala-Val-Gly-His-Leu-Thz-NH2], the Ki was > 150 nM and 2030 nM.

With `CC(C)C[C@H](NC(=O)[C@H](Cc1c[nH]cn1)NC(=O)CNC(=O)[C@@H](NC(=O)[C@H](C)NC(=O)[C@H]1Cc2c([nH]c3ccccc23)CN1C(=O)[C@H](CCC(N)=O)NC(=O)[C@H](N)Cc1ccccc1)C(C)C)C(=O)N1CSC[C@H]1C(N)=O` [LW01191, D-Phe-Gln-D-Tpi-Ala-Val-Gly-His-Leu-Thz-NH2], the Ki is above 10000 nM.

With `CC(C)=C(NC(=O)[C@H](C)NC(=O)[C@H](Cc1c[nH]c2ccccc12)NC(=O)[C@H](CCC(N)=O)NC(=O)[C@H](N)Cc1ccccc1)C(=O)NCC(=O)N[C@@H](Cc1c[nH]cn1)C(=O)N[C@@H](CC(C)C)C(=O)N1CSC[C@H]1C(N)=O` [LW02011, D-Phe-Gln-Trp-Ala-2,3-dehydro-Val-Gly-His-Leu-Thz-NH2], the Ki is above 10000 nM.

`CC(C)C[C@H](NC(=O)[C@H](Cc1c[nH]cn1)NC(=O)CNC(=O)[C@@H](NC(=O)[C@H](C)NC(=O)[C@H](Cc1c[nH]c2ncccc12)NC(=O)[C@H](CCC(N)=O)NC(=O)[C@H](N)Cc1ccccc1)C(C)C)C(=O)N1CSC[C@H]1C(N)=O` [LW02013, D-Phe-Gln-7-Aza-Trp-Ala-Val-Gly-His-Leu-Thz-NH2]: the Ki is above 150 nM.

Consider `CC(C)C[C@H](NC(=O)[C@H](Cc1c[nH]cn1)NC(=O)CNC(=O)[C@@H](NC(=O)[C@H](C)NC(=O)[C@H](Cc1c[nH]c2ccccc12)NC(=O)[C@H](CCC(N)=O)NC(=O)[C@H](N)Cc1ccccc1)C1CCC1)C(=O)N1CSC[C@H]1C(N)=O` [LW02019, D-Phe-Gln-Trp-Ala-cyclobutaneacetic acid-Gly-His-Leu-Thz-NH2], for which the Ki was 35.7 ± 27.4 nM.

On to `CC(C)C[C@H](NC(=O)[C@H](Cc1c[nH]cn1)NC(=O)CNC(=O)[C@@H](NC(=O)[C@H](C)NC(=O)[C@H](Cc1c[nH]c2ccccc12)NC(=O)[C@H](CCO)NC(=O)[C@H](N)Cc1ccccc1)C(C)C)C(=O)N1CSC[C@H]1C(N)=O` [LW02030, D-Phe-Hse-Trp-Ala-Val-Gly-His-Leu-Thz-NH2] (H-[dF][hSer]WAVGHL[Thz]-NH2), for which the Ki is > 150 nM and 196 nM.

The next assay addresses T1, GRPR. The assay is described as follows: Fluorometric calcium release assay in PC-3 cells. The class given is cell-based. The conditions noted are these: 50 nM ligand. As to the method: The growth medium was removed and replaced with a loading buffer containing a calcium-sensitive dye (FLIPR Calcium 6 assay kit from Molecular Devices, San Jose, CA, USA). After incubated at 37 °C for 30 min, the plates were placed in a FlexStation 3 microplate reader (Molecular Devices). Tested ligands (50 nM) or DPBS (negative control) were added to the cells and the fluorescent signals were acquired for 2 min. Agonistic/antagonistic properties of the tested ligands were determined based on the relative fluorescent unit (RFU = max – min) of their generated fluorescent signals.
As for `Nc1ncnc2c1ncn2[C@@H]1O[C@H](COP(=O)(O)OP(=O)(O)OP(=O)(O)O)[C@@H](O)[C@H]1O` [ATP, reference compound], the “Ca^2+ efflux (relative fluorescence units, RFU = max – min)” value is recorded as 253 ± 46.5 RFUs.

Take `CC(C)C[C@H](NC(=O)[C@H](Cc1c[nH]cn1)NC(=O)CNC(=O)[C@@H](NC(=O)[C@H](C)NC(=O)[C@H](Cc1c[nH]c2ccccc12)NC(=O)[C@H](CCC(N)=O)NC(=O)[C@@H](Cc1ccccc1)NC(=O)CN1CCC(NC(=O)CN2CCN(CC(=O)O)CCN(CC(=O)O)CCN(CC(=O)O)CC2)CC1)C(C)(C)C)C(=O)N1CSC[C@H]1C(N)=O` [Ga-LW01108, Ga-DOTA-Pip-D-Phe-Gln-Trp-Ala-Tle-Gly-His-Leu-Thz-NH2]: the “Ca^2+ efflux (relative fluorescence units, RFU = max – min)” value is reported as 549 ± 46.7 RFUs.

`CC(C)C[C@H](NC(=O)[C@H](Cc1c[nH]cn1)N(C)C(=O)CNC(=O)[C@@H](NC(=O)[C@H](C)NC(=O)[C@H](Cc1c[nH]c2ccccc12)NC(=O)[C@H](CCC(N)=O)NC(=O)[C@@H](Cc1ccccc1)NC(=O)CN1CCC(NC(=O)CN2CCN(CC(=O)O)CCN(CC(=O)O)CCN(CC(=O)O)CC2)CC1)C(C)(C)C)C(=O)N1CSC[C@H]1C(N)=O` [Ga-LW01110, Ga-DOTA-Pip-D-Phe-Gln-Trp-Ala-Tle-Gly-NMe-His-Leu-Thz-NH2]: the “Ca^2+ efflux (relative fluorescence units, RFU = max – min)” value is given as 521 ± 43.7 RFUs.

In the case of `CC(C)C[C@H](NC(=O)[C@H](Cc1c[nH]cn1)N(C)C(=O)CNC(=O)[C@@H](NC(=O)[C@H](C)NC(=O)[C@H](Cc1c[nH]c2ccccc12)NC(=O)[C@H](Cc1c[nH]cn1)NC(=O)[C@@H](Cc1ccccc1)NC(=O)CN1CCC(NC(=O)CN2CCN(CC(=O)O)CCN(CC(=O)O)CCN(CC(=O)O)CC2)CC1)C(C)(C)C)C(=O)N1CSC[C@H]1C(N)=O` [Ga-LW01142, Ga-DOTA-Pip-D-Phe-His-Trp-Ala-Tle-Gly-NMe-His-Leu-Thz-NH2] ({DOTA}-[X1][dF]HWA[Tle]G[NMeH]L[Thz]-NH2), the “Ca^2+ efflux (relative fluorescence units, RFU = max – min)” value was 559 ± 96.2 RFUs.

Regarding `Cc1ccc2[nH]cc(C[C@H](NC(=O)[C@H](CCC(N)=O)NC(=O)[C@@H](Cc3ccccc3)NC(=O)CN3CCC(NC(=O)CN4CCN(CC(=O)O)CCN(CC(=O)O)CCN(CC(=O)O)CC4)CC3)C(=O)N[C@@H](C)C(=O)N[C@H](C(=O)NCC(=O)N[C@@H](Cc3c[nH]cn3)C(=O)N[C@@H](CC(C)C)C(=O)N3CSC[C@H]3C(N)=O)C(C)C)c2c1` [Ga-LW02023, Ga-DOTA-Pip-D-Phe-Gln-5-Me-Trp-Ala-Val-Gly-His-Leu-Thz-NH2], the “Ca^2+ efflux (relative fluorescence units, RFU = max – min)” value is listed as 312 ± 45.9 RFUs.

As to `Cc1[nH]c2ccccc2c1C[C@H](NC(=O)[C@H](CCC(N)=O)NC(=O)[C@@H](Cc1ccccc1)NC(=O)CN1CCC(NC(=O)CN2CCN(CC(=O)O)CCN(CC(=O)O)CCN(CC(=O)O)CC2)CC1)C(=O)N[C@@H](C)C(=O)N[C@H](C(=O)NCC(=O)N[C@@H](Cc1c[nH]cn1)C(=O)N[C@@H](CC(C)C)C(=O)N1CSC[C@H]1C(N)=O)C(C)C` [Ga-LW02025, Ga-DOTA-Pip-D-Phe-Gln-2-Me-Trp-Ala-Val-Gly-His-Leu-Thz-NH2], the “Ca^2+ efflux (relative fluorescence units, RFU = max – min)” value is on record as 197 ± 50.3 RFUs.

For the compound `CC(C)C[C@H](NC(=O)[C@H](Cc1c[nH]cn1)N(C)C(=O)CNC(=O)[C@@H](NC(=O)[C@H](C)NC(=O)[C@H](Cc1c[nH]c2c(F)cccc12)NC(=O)[C@H](CCC(N)=O)NC(=O)[C@@H](Cc1ccccc1)NC(=O)CN1CCC(NC(=O)CN2CCN(CC(=O)O)CCN(CC(=O)O)CCN(CC(=O)O)CC2)CC1)C(C)(C)C)C(=O)N1CSC[C@H]1C(N)=O` [Ga-LW02040, Ga-DOTA-Pip-D-Phe-Gln-7-F-Trp-Ala-Tle-Gly-NMe-His-Leu-Thz-NH2], the “Ca^2+ efflux (relative fluorescence units, RFU = max – min)” value amounted to 242 ± 44.1 RFUs.

“Ga-DOTA-Pip-D-Phe-Gln-7-F-Trp-Ala-Val-Gly-His-Leu-Thz-NH2 [Ga-LW02021]”: the “Ca^2+ efflux (relative fluorescence units, RFU = max – min)” value is listed as 178 ± 53.7 RFUs.

On to “Ga-DOTA-Pip-D-Phe-Gln-Trp-Ala-Val-Gly-NMe-His-Leu-Thz-NH2 [Ga-LW01107]”, for which the “Ca^2+ efflux (relative fluorescence units, RFU = max – min)” value is 1,004 ± 32.0 RFUs.

“[D-Phe^6,Leu-NHEt^13,des-Met^14]Bombesin(6–14) [reference compound]”: the “Ca^2+ efflux (relative fluorescence units, RFU = max – min)” value came to 38.2 ± 7.20 RFUs.

bombesin [reference compound]: the “Ca^2+ efflux (relative fluorescence units, RFU = max – min)” value was found to be 450 ± 136 RFUs.
